Class data for 37 compounds are collected here from patent publication US20050197350A1, “Novel quinoline, tetrahydroquinazoline, and pyrimidine derivatives and methods of treatment related to the use thereof” (TAISHO PHARMACEUTICAL CO., LTD., priority 2003, published 2005).

This test deals with MCH receptors. The experiment in a line: MCH receptor activity class (method not given).
The mark [1] stands for this setting: MCH receptor, class by percent of control at 10^-7 M or IC50.
Where [2] appears, read: class by percent of control at 10^-7 M or IC50.
Setting [3] is: class 1-3 by percent of control at 10^-7 M or IC50.
The mark [4] stands for this setting: activity class per percent of control at 10^-7 M or IC50.

SMILES strings stand for the structures. Where two headings read alike, the source gives them in different places.

With `C/C(=C\c1ccccc1)C(=O)N[C@H]1CC[C@@H](Nc2cc(N(C)C)c3ccccc3n2)CC1` [compound 87], the class under setting [1] was 3 (Class 3 The value of percent of control at 10^−7 M was more than 60% or the value of IC50 was more than 200 nM.).

Consider `COc1ccc(CN[C@H]2CC[C@@H](Nc3nc4c(c(N(C)C)n3)CCCC4)CC2)c(OC)c1` [compound 1335], for which, under setting [2], the class is 3 (Class 3 The value of percent of control at 10^−7 M was more than 60% or the value of IC50 was more than 200 nM.).

Regarding `Cc1ccc(C(=O)NC[C@H]2CC[C@@H](Nc3nc4c(c(N(C)C)n3)CCCC4)CC2)c(F)c1F` [compound 622], under setting [2], the class is 3 (Class 3 The value of percent of control at 10^−7 M was more than 60% or the value of IC50 was more than 200 nM.).

As for `CN(C)c1nc(N[C@H]2CC[C@@H](NC(=O)CCC3CCCCC3)CC2)nc2c1CCCC2` [compound 971], the class under setting [2] is given as 3 (Class 3 The value of percent of control at 10^−7 M was more than 60% or the value of IC50 was more than 200 nM.).

As to `CN(C)c1ccnc(N[C@H]2CC[C@@H](CNC(=O)Nc3c(Cl)cccc3Cl)CC2)n1` [compound 2445], for the setting “MCH receptor activity class 1-3 (percent of control at 10^-7 M or IC50)”, the class is given as 1 (Class 1: The value of percent of control at 10^−7 M was less than 40% or the value of IC50 was less than 50 nM.).

Regarding `Cc1noc(-c2ccccc2)c1NC(=O)N[C@H]1CC[C@@H](Nc2nccc(N(C)C)n2)CC1` [compound 2211], the class under setting [2] was 3 (Class 3 The value of percent of control at 10^−7 M was more than 60% or the value of IC50 was more than 200 nM.).

As to `Cc1cc(N(C)C)nc(N[C@H]2CC[C@@H](NC(=O)c3ccc(C(F)(F)F)c(F)c3)CC2)n1` [compound 2960, N-(cis-4-{[4-(dimethylamino)-6-methylpyrimidin-2-yl]amino}cyclohexyl)-3-fluoro-4-(trifluoromethyl)benzamide], for the setting “class by percent of control at 10^−7 M or IC50”, the class was 2 (Class 2: The value of percent of control at 10^−7 M was from 40% to 60% or the value of IC′50 was from 50 nM to 200 nM.).

On to `Cc1ccc(C(=O)N[C@H]2CC[C@@H](Nc3cc(C)c4ccccc4n3)CC2)cc1` [Example 2544, 4-methyl-N-{cis-4-[(4-methylquinolin-2-yl)amino]cyclohexyl}benzamide], for which the class is 1.

With `COc1ccc(NC(=S)N[C@H]2CC[C@@H](Nc3cc(N(C)C)c4ccccc4n3)CC2)c(OC)c1` [compound 2170], the class under setting [2] was 2 (Class 2: The value of percent of control at 10^−7 M was from 40% to 60% or the value of IC′50 was from 50 nM to 200 nM.).

As for `CN(C)c1cc(N[C@H]2CC[C@@H](NC(=O)c3ccc(F)c(C(F)(F)F)c3)CC2)nc2ccccc12` [compound 106, N-(cis-4-{[4-(dimethylamino)quinolin-2-yl]amino}cyclohexyl)-4-fluoro-3-(trifluoromethyl)benzamide], the class under setting [1] is 1 (Class 1: The value of percent of control at 10^−7 M was less than 40% or the value of IC50 was less than 50 nM.).

For `CN(C)c1nc(N[C@H]2CC[C@@H](NC(=S)Nc3ccc(Br)cc3OC(F)(F)F)CC2)nc2c1CCCC2` [compound 1787], the class under setting [2] is 2 (Class 2: The value of percent of control at 10^−7 M was from 40% to 60% or the value of IC′50 was from 50 nM to 200 nM.).

`CN(C)c1nc(N[C@H]2CC[C@@H](NC(=O)c3ccc4nonc4c3)CC2)nc2c1CCCC2` [compound 459]: the class under setting [3] is 1 (Class 1: The value of percent of control at 10^−7 M was less than 40% or the value of IC50 was less than 50 nM.).

For the compound `C=CCOc1ccccc1CNC[C@H]1CC[C@@H](Nc2nc3c(c(N(C)C)n2)CCCC3)CC1` [compound 1419], the class under setting [2] is 3 (Class 3 The value of percent of control at 10^−7 M was more than 60% or the value of IC50 was more than 200 nM.).

As to `COc1ccc(NC(=O)N[C@H]2CC[C@@H](Nc3cc(N(C)C)c4ccccc4n3)CC2)cc1OC` [compound 2150], the class under setting [2] is on record as 3 (Class 3 The value of percent of control at 10^−7 M was more than 60% or the value of IC50 was more than 200 nM.).

As for `CN(C)c1cc(N[C@H]2CC[C@@H](CNC(=O)c3cccc(Cl)c3)CC2)nc2ccccc12` [compound 151], the class under setting [1] was 3 (Class 3 The value of percent of control at 10^−7 M was more than 60% or the value of IC50 was more than 200 nM.).

With `CN(C)c1nc(N[C@H]2CC[C@@H](CNC(=O)c3ccc(F)c(Cl)c3)CC2)nc2c1CCCC2` [compound 635], the class under setting [2] is 3 (Class 3 The value of percent of control at 10^−7 M was more than 60% or the value of IC50 was more than 200 nM.).

Turning to `Cc1cccc([N+](=O)[O-])c1NC(=O)NC[C@H]1CC[C@@H](Nc2nc3c(c(N(C)C)n2)CCCC3)CC1` [compound 2493], under setting [2], the class is 3 (Class 3 The value of percent of control at 10^−7 M was more than 60% or the value of IC50 was more than 200 nM.).

Regarding `CN(C)c1cc(N[C@H]2CC[C@@H](CNCc3ccccc3OC(F)(F)F)CC2)nc2ccccc12` [compound 1168], the class under setting [2] is reported as 3 (Class 3 The value of percent of control at 10^−7 M was more than 60% or the value of IC50 was more than 200 nM.).

Turning to `COc1ccc(CNC[C@H]2CC[C@@H](Nc3nc4c(c(N(C)C)n3)CCCC4)CC2)c(OC)c1OC` [compound 1374], the class under setting [2] is 3 (Class 3 The value of percent of control at 10^−7 M was more than 60% or the value of IC50 was more than 200 nM.).

Consider `CN(C)c1nc(N[C@H]2CC[C@@H](NC(=S)Nc3cc(Cl)cc(Cl)c3)CC2)nc2c1CCCC2` [compound 1981], for which the class under setting [1] is 3 (Class 3 The value of percent of control at 10^−7 M was more than 60% or the value of IC50 was more than 200 nM.).

For `Cc1ccc(Cl)cc1NC(=S)N[C@H]1CC[C@@H](Nc2nc3c(c(N(C)C)n2)CCCC3)CC1` [compound 1994], under setting [1], the class is 3 (Class 3 The value of percent of control at 10^−7 M was more than 60% or the value of IC50 was more than 200 nM.).

As for `CN(C)c1nc(N[C@H]2CC[C@@H](CNC(=O)c3cc(F)ccc3Cl)CC2)nc2c1CCCC2` [compound 660], under setting [2], the class is 3 (Class 3 The value of percent of control at 10^−7 M was more than 60% or the value of IC50 was more than 200 nM.).

As for `CN(C)c1nc(N[C@H]2CC[C@@H](NC(=O)c3ccc(Cl)c(Cl)c3)CC2)nc2c1CCCC2` [compound 467, 3,4-dichloro-N-(cis-4-{[4-(dimethylamino)-5,6,7,8-tetrahydroquinazolin-2-yl]amino}cyclohexyl)benzamide], under setting [3], the class is 1 (Class 1: The value of percent of control at 10^−7 M was less than 40% or the value of IC50 was less than 50 nM.).

For the compound `COC(CN[C@H]1CC[C@@H](Nc2cc(N(C)C)c3ccccc3n2)CC1)c1ccccc1` (relative stereo) [compound 1450], the class under setting [2] is listed as 3 (Class 3 The value of percent of control at 10^−7 M was more than 60% or the value of IC50 was more than 200 nM.).

For `CN(C)c1ccnc(N[C@H]2CC[C@@H](NC(=O)c3cccc(F)c3)CC2)n1` [compound 323], the class under setting [2] is 3 (Class 3 The value of percent of control at 10^−7 M was more than 60% or the value of IC50 was more than 200 nM.).

For `Cc1ccccc1CNC(=S)N[C@H]1CC[C@@H](Nc2nc3c(c(N(C)C)n2)CCCC3)CC1` [compound 2040], the class under setting [1] was 3 (Class 3 The value of percent of control at 10^−7 M was more than 60% or the value of IC50 was more than 200 nM.).

Consider `CN(C)c1cc(N[C@H]2CC[C@@H](NC(=O)OCc3ccc([N+](=O)[O-])cc3)CC2)nc2ccccc12` [compound 56], for which the class under setting [1] is 3 (Class 3 The value of percent of control at 10^−7 M was more than 60% or the value of IC50 was more than 200 nM.).

With `Cc1cc(C(=O)N[C@H]2CC[C@@H](Nc3nc4c(c(N(C)C)n3)CCCC4)CC2)cc(C)c1[N+](=O)[O-]` [compound 1050], under setting [4], the class was 3 (Class 3 The value of percent of control at 10^−7 M was more than 60% or the value of IC50 was more than 200 nM.).

Regarding `CN(C)c1nc(N[C@H]2CC[C@@H](CNCc3cc(Cl)cc(Cl)c3)CC2)nc2c1CCCC2` [compound 1429], the class under setting [2] was 3 (Class 3 The value of percent of control at 10^−7 M was more than 60% or the value of IC50 was more than 200 nM.).

In the case of `CN(C)c1nc(N[C@H]2CC[C@@H](NC(=O)c3cc(C(C)(C)C)c(O)c(C(C)(C)C)c3)CC2)nc2c1CCCC2` [compound 1060], under setting [4], the class is 3 (Class 3 The value of percent of control at 10^−7 M was more than 60% or the value of IC50 was more than 200 nM.).

Regarding `Cc1cc(C)c2occ(CN[C@H]3CC[C@@H](Nc4nc5c(c(N(C)C)n4)CCCC5)CC3)c(=O)c2c1` [compound 1350], under setting [2], the class was 2 (Class 2: The value of percent of control at 10^−7 M was from 40% to 60% or the value of IC′50 was from 50 nM to 200 nM.).

In the case of `Cc1cccc(NC(=O)N[C@H]2CC[C@@H](Nc3cc(N(C)C)c4ccccc4n3)CC2)c1C` [compound 2126], the class under setting [2] was 3 (Class 3 The value of percent of control at 10^−7 M was more than 60% or the value of IC50 was more than 200 nM.).

For the compound `COc1cc(CC(=O)N[C@H]2CC[C@@H](Nc3cc(N(C)C)c4ccccc4n3)CC2)ccc1OCc1ccccc1` [compound 736], under setting [2], the class is given as 3 (Class 3 The value of percent of control at 10^−7 M was more than 60% or the value of IC50 was more than 200 nM.).

With `COc1cc(CC(=O)N[C@H]2CC[C@@H](Nc3nccc(N(C)C)n3)CC2)ccc1OCc1ccccc1` [compound 876], under setting [2], the class was 3 (Class 3 The value of percent of control at 10^−7 M was more than 60% or the value of IC50 was more than 200 nM.).

`CN(C)c1ccnc(N[C@H]2CC[C@@H](NC(=O)c3ccc([N+](=O)[O-])o3)CC2)n1` [compound 329]: the class under setting [2] is recorded as 3 (Class 3 The value of percent of control at 10^−7 M was more than 60% or the value of IC50 was more than 200 nM.).

With `COc1ccc(OC)c(CN[C@H]2CC[C@@H](Nc3nc4c(c(N(C)C)n3)CCCC4)CC2)c1` [compound 1329], the class under setting [2] was 3 (Class 3 The value of percent of control at 10^−7 M was more than 60% or the value of IC50 was more than 200 nM.).

For the compound `CN(C)c1cc(N[C@H]2CC[C@@H](NC(=O)Cc3ccccc3C(=O)Nc3ccc(Cl)cc3Cl)CC2)nc2ccccc12` [compound 723], the class under setting [2] is recorded as 3 (Class 3 The value of percent of control at 10^−7 M was more than 60% or the value of IC50 was more than 200 nM.).
